In patent US8980224B2, “Method of cardiac imaging” (GE Healthcare AS, priority 2004, dated 2015):

Key:
[1] = 13C polarisation obtained by the DNP method, assessed with 13C-NMR; format: physicochemical; details: 1.2 K, 3.35 T
Experimental: A 20 mM solution was prepared by dissolving 5.0 mg of the radical of Example 1 in ^13CI-pyruvic acid (164 μl). The sample was mixed to homogeneity and an aliquot of the solution (41 mg) was placed in a sample cup and inserted in the DNP polariser.
The sample was polarised under DNP conditions at 1.2 K in a 3.35 T magnetic field under irradiation with microwave (93.950 GHz). After 2 hours the polarisation was stopped and the sample was dissolved using a dissolution device according to WO-A-02/37132 in an aqueous solution of sodium hydroxide and tris(hydroxymethyl)aminomethane (TRIS) to provide a neutral solution of hyperpolarised sodium ^13C1-pyruvate. The dissolved sample was rapidly analysed with ^13C-NMR to assess the polarisation and a 19.0% ^13C polarisation was obtained.
A 15 mM solution was prepared by dissolving the radical of Example 1 (209.1 mg) in a mixture of ^13C1-pyruvic acid (553 mg) and unlabelled pyruvic acid (10.505 g). The sample was mixed to homogeneity and an aliquot of the solution (2.015 g) was placed in a sample cup and inserted in the DNP polariser.
The sample was polarised under DNP conditions at 1.2 K in a 3.35 T magnetic field under irradiation with microwave (93.950 GHz). […] The filtered solution was rapidly analysed with ^13C-NMR to assess the polarisation, 16.5% ^13C polarisation was obtained. The residual radical concentration was subsequently analysed with a UV spectrophotometer meter at 469 nm and was determined to be below the detection limit of 0.1 μM.
A 20 mM solution was prepared by dissolving Tris(8-carboxy-2,2,6,6-tetra(hydroxyethoxy)methyl-benzo[1,2-d:4,5-d′]-bis-(1,3)-dithiole-4-yl)methyl sodium salt in ^13C1-pyruvic acid (83.1 mg). […] The DNP enhancement was calculated from a measurement of the thermal equilibrium ^13C-NMR signal and the enhanced NMR signal. […]

[2] = T1 relaxation of 13C-pyruvate in human full blood; format: physicochemical; details: human full blood at 37° C.
Text: The amount of alanine, bicarbonate and lactate is dependent on the metabolic status of the myocardial tissue under investigation.

myocardial tissue = assay: Cardiac 13C-MR imaging in the pig before and after occlusion of the circumflexa; format: in vivo; details: 0.22 mmol/kg i.v., imaging 30 s after start of injection
Experimental: The pig (25 kg) was anaesthetised using a cocktail containing isotonic NaCl (26 vol %), Ketalar (50 mg/ml) (Pfizer AB) (42 vol %), Norcuron (10 mg+5 ml sterile water) (Organon) (21 vol %) and Midazolam (5 mg/ml) (Pharma Hameln) (11% vol) administered using an infusion pump at a rate of 0.6 ml/min.
After the first injection with ^13C-pyruvate the pig was removed from the MR scanner. Under X-ray guidance, a balloon catheter was inserted into the arteria coronaria sinistra and the circumflexa was blocked for a 15 minute period. During the whole operation ECG and blood pressure were measured. 90 Minutes after the end of the ischemic period, the pig was imaged again and ^13C-images were acquired from (about) the same location as were the control measurement was carried out.
The pig was positioned in a pig MR coil (Rapid Biomedical, Germany) and imaged using a standard clinical cardiac proton MR imaging sequence library to get anatomical information and to get the short axis view orientation of the myocardium (see proton reference image in the figures to see an example of short axis view).
Based on the proton frequency found by the MR system the MR frequency for ^13C1-alanine was calculated according to the following equation: Frequency ^13C1-alanine=0.25144×[(system frequency proton×1.00021)−0.000397708]
The frequency calculated positioned the MR signal arising from ^13C1-alanine on resonance with ^13C1-lactate on the left and ^13C1-pyruvate and ^13C1-bicarbonate resonating on the right of ^13C1-alanine. An unlocalised MR spectroscopy sequence was run to ensure that the ^13C-MR coil and the system MR frequency had been set up correctly. The ^13C-image location was positioned to cover the myocardium (short axis view) (slice thickness 20 mm, in plane pixel size 7.5×7.5 mm^2). In the reconstruction phase, the image data was zero-filled to result in 3.75×3.75×20 mm^3 resolution. 16 ml of ^13C1-pyruvate (327 mM) was injected (0.22 mmol/kg) during a period of 12 s (1.3 ml/s) i.v. into the front leg and 30 s after the start of the injection (i.e. 18 s after finishing the injection), the chemical shift ^13C-MR sequence was started.
In the reconstruction phase, the matrix was zero-filled to 32×32, a mathematical operation that helps to improve the spatial resolution. The dataset was analysed on the MRI scanner with software provided by the manufacturer. The results are metabolic images for ^13C-pyruvate, ^13C-alanine, ^13C-lactate and ^13C-bicarbonate.

[3] = 90 minutes after 15 minute occlusion of the circumflexa
[4] = before vs 90 minutes after 15 minute occlusion

Row | 13C polarisation ([1]; Example 4: 20 mM tris(8-carboxy-2,2,6,6-tetra(hydroxyethoxy)methyl-benzo-bis-dithiole-4-yl)methyl sodium salt, calculated from thermal equilibrium and enhanced NMR signal) | 13C polarisation ([1]; Example 2: 20 mM radical of Example 1 in 13C1-pyruvic acid, 93.950 GHz, 2 hours, dissolved in NaOH/TRIS, liquid 13C-NMR) | 13C polarisation ([1]; Example 3: 15 mM radical of Example 1, 4 hours, dissolved in NaOH/TRIS, 0.5 M pyruvate, radical removed on C18 column, filtered solution) | T1 relaxation [2] | Structure (SMILES) | 13C-bicarbonate signal in myocardial tissue at risk (compared to the control) (myocardial tissue; [3]) | 13C-lactate signal in myocardial tissue at risk (myocardial tissue; [3]) | 13C-alanine image before and after the ischemic period (myocardial tissue; [4]) | 13C-pyruvate image before and after the ischemic period (myocardial tissue; [4])
1 | 16% | – | – | – | CC(=O)[13C](=O)O [^13C1-pyruvic acid] | – | – | – | –
2 | – | 19.0% | 16.5% | about 42 s | CC(=O)C(=O)O [^13C-pyruvate, sodium ^13C1-pyruvate] | strongly reduced | positive contrast | No difference | No difference
